These results are taken from the supplement of paper PMC10307832.

What all share (assay): relative viability (nuclei count vs DMSO), 5 days (fraction); higher = more cells survive
Compound in the assay “XMD14-99 + Dasatinib”: CN1CCN(CC1)C2=CC(=C(C=C2)NC3=NC(=C(S3)C(=O)C4=C(C=CC=C4Cl)Cl)N)OC [XMD14-99] + Cc1nc(Nc2ncc(C(=O)Nc3c(C)cccc3Cl)s2)cc(N2CCN(CCO)CC2)n1 [Dasatinib] (partner 0.075 µM)
The essentials: (§1)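 The day after seeding in 1536-well plates, lung cancer cell lines were treated by pin tool with a single drug, or with a fixed anchor-drug dose together with five library-drug doses (not always all listed) in √10 steps. After 5 days, a combined fix-and-stain solution (final 0.05% Triton X-100, 1% formaldehyde, 1 ug/ml Hoechst) was added. Nuclei counted on 4× images gave relative viability as treated counts over vehicle counts, reported as the median of duplicate plates.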

Compound in the assay “XMD14-99 + Navitoclax”: CN1CCN(CC1)C2=CC(=C(C=C2)NC3=NC(=C(S3)C(=O)C4=C(C=CC=C4Cl)Cl)N)OC [XMD14-99] + CC1(C)CCC(c2ccc(Cl)cc2)=C(CN2CCN(c3ccc(C(=O)NS(=O)(=O)c4ccc(N[C@H](CCN5CCOCC5)CSc5ccccc5)c(S(=O)(=O)C(F)(F)F)c4)cc3)CC2)C1 [Navitoclax] (partner 0.5 µM)
The essentials: as §1

Compound in the assay “XMD14-99 + Linsitinib”: CN1CCN(CC1)C2=CC(=C(C=C2)NC3=NC(=C(S3)C(=O)C4=C(C=CC=C4Cl)Cl)N)OC [XMD14-99] + C[C@]1(O)C[C@@H](c2nc(-c3ccc4ccc(-c5ccccc5)nc4c3)c3c(N)nccn32)C1 [Linsitinib] (partner 1 µM)
A digest of the protocol:
as §1

Compound in the assay “XMD14-99 + Palbociclib”: CN1CCN(CC1)C2=CC(=C(C=C2)NC3=NC(=C(S3)C(=O)C4=C(C=CC=C4Cl)Cl)N)OC [XMD14-99] + CC(=O)c1c(C)c2cnc(Nc3ccc(N4CCNCC4)cn3)nc2n(C2CCCC2)c1=O [Palbociclib] (partner 0.5 µM)
A digest of the protocol: as §1

Compound in the assay “XMD14-99 + Trametinib”: CN1CCN(CC1)C2=CC(=C(C=C2)NC3=NC(=C(S3)C(=O)C4=C(C=CC=C4Cl)Cl)N)OC [XMD14-99] + CC(=O)Nc1cccc(-n2c(=O)n(C3CC3)c(=O)c3c(Nc4ccc(I)cc4F)n(C)c(=O)c(C)c32)c1 [Trametinib] (partner 0.02 µM)
A digest of the protocol:
as §1

Regarding 201T, the relative viability with XMD14-99 + Dasatinib (first compound 0.08 µM) worked out at 0.593; in the assay with XMD14-99 + Dasatinib (first compound 0.8 µM) it was 0.618; with XMD14-99 + Dasatinib (first compound 2.53 µM), 0.546; in the assay with XMD14-99 + Dasatinib (first compound 8 µM) it was 0.523; with XMD14-99 + Navitoclax (first compound 0.08 µM), 1.18; with XMD14-99 + Navitoclax (first compound 0.8 µM), 1.17. Also, the relative viability in the assay with XMD14-99 + Navitoclax (first compound 2.53 µM) worked out at 1.11; with XMD14-99 + Navitoclax (first compound 8 µM), 1.15; in the assay with XMD14-99 + Linsitinib (first compound 0.08 µM) it was 1.05; with XMD14-99 + Linsitinib (first compound 0.8 µM), 1.02; with XMD14-99 + Linsitinib (first compound 2.53 µM), 0.995; in the assay with XMD14-99 + Linsitinib (first compound 8 µM), 1. Also, the relative viability with XMD14-99 + Palbociclib (first compound 0.08 µM) was determined as 0.351; with XMD14-99 + Palbociclib (first compound 0.8 µM), 0.368; in the assay with XMD14-99 + Palbociclib (first compound 2.53 µM), 0.371; in the assay with XMD14-99 + Palbociclib (first compound 8 µM), 0.333; in the assay with XMD14-99 + Trametinib (first compound 0.08 µM), 0.693; in the assay with XMD14-99 + Trametinib (first compound 0.8 µM), 0.709. Besides, the relative viability in the assay with XMD14-99 + Trametinib (first compound 2.53 µM) amounted to 0.691; with XMD14-99 + Trametinib (first compound 8 µM) it was 0.664.
In the case of A549, the relative viability with XMD14-99 + Navitoclax (first compound 0.08 µM) came out at 1.14; with XMD14-99 + Navitoclax (first compound 0.8 µM) it was 1.13; with XMD14-99 + Navitoclax (first compound 2.53 µM), 1.03; with XMD14-99 + Navitoclax (first compound 8 µM), 0.724; with XMD14-99 + Linsitinib (first compound 0.08 µM) it was 0.636; in the assay with XMD14-99 + Linsitinib (first compound 0.8 µM) it was 0.599. The relative viability amounted to 0.629 with XMD14-99 + Linsitinib (first compound 2.53 µM) and 0.505 in the assay with XMD14-99 + Linsitinib (first compound 8 µM).
Regarding A-427, the relative viability worked out at 0.624 with XMD14-99 + Dasatinib (first compound 0.08 µM); 0.651 with XMD14-99 + Dasatinib (first compound 0.8 µM); 0.545 with XMD14-99 + Dasatinib (first compound 2.53 µM); 0.479 with XMD14-99 + Dasatinib (first compound 8 µM); 0.894 with XMD14-99 + Navitoclax (first compound 0.08 µM); 0.954 with XMD14-99 + Navitoclax (first compound 0.8 µM). Also, the relative viability in the assay with XMD14-99 + Navitoclax (first compound 2.53 µM) came out at 0.779; with XMD14-99 + Navitoclax (first compound 8 µM), 0.807; with XMD14-99 + Linsitinib (first compound 0.08 µM), 1.15; with XMD14-99 + Linsitinib (first compound 0.8 µM), 1.08; with XMD14-99 + Linsitinib (first compound 2.53 µM), 1.01; with XMD14-99 + Linsitinib (first compound 8 µM), 0.904. Moreover, the relative viability with XMD14-99 + Palbociclib (first compound 0.08 µM) came out at 0.515; with XMD14-99 + Palbociclib (first compound 0.8 µM), 0.554; with XMD14-99 + Palbociclib (first compound 2.53 µM), 0.488; with XMD14-99 + Palbociclib (first compound 8 µM), 0.452; with XMD14-99 + Trametinib (first compound 0.08 µM), 0.762; with XMD14-99 + Trametinib (first compound 0.8 µM), 0.668. Also, the relative viability in the assay with XMD14-99 + Trametinib (first compound 2.53 µM) came out at 0.651; with XMD14-99 + Trametinib (first compound 8 µM) it was 0.553.
Consider ABC-1, for which the relative viability in the assay with XMD14-99 + Dasatinib (first compound 0.08 µM) amounted to 0.555; with XMD14-99 + Dasatinib (first compound 0.8 µM) it was 0.689; with XMD14-99 + Dasatinib (first compound 2.53 µM) it was 0.483; in the assay with XMD14-99 + Dasatinib (first compound 8 µM), 0.46; in the assay with XMD14-99 + Linsitinib (first compound 0.08 µM), 0.906; in the assay with XMD14-99 + Linsitinib (first compound 0.8 µM), 0.707. For the same cell line, the relative viability with XMD14-99 + Linsitinib (first compound 2.53 µM) turned out to be 0.659; in the assay with XMD14-99 + Linsitinib (first compound 8 µM), 0.642; in the assay with XMD14-99 + Palbociclib (first compound 0.08 µM), 0.783; in the assay with XMD14-99 + Palbociclib (first compound 0.8 µM), 0.722; with XMD14-99 + Palbociclib (first compound 2.53 µM), 0.651; with XMD14-99 + Palbociclib (first compound 8 µM) it was 0.634.
Regarding BEN, the relative viability was found to be 0.29 with XMD14-99 + Dasatinib (first compound 0.08 µM); 0.36 with XMD14-99 + Dasatinib (first compound 0.8 µM); 0.25 with XMD14-99 + Dasatinib (first compound 2.53 µM); 0.244 with XMD14-99 + Dasatinib (first compound 8 µM); 0.0784 with XMD14-99 + Navitoclax (first compound 0.08 µM); 0.0577 with XMD14-99 + Navitoclax (first compound 0.8 µM). Moreover, the relative viability came out at 0.0776 with XMD14-99 + Navitoclax (first compound 2.53 µM); 0.0694 with XMD14-99 + Navitoclax (first compound 8 µM); 0.872 with XMD14-99 + Linsitinib (first compound 0.08 µM); 0.816 with XMD14-99 + Linsitinib (first compound 0.8 µM); 0.81 in the assay with XMD14-99 + Linsitinib (first compound 2.53 µM); 0.762 in the assay with XMD14-99 + Linsitinib (first compound 8 µM). The relative viability is 0.489 in the assay with XMD14-99 + Palbociclib (first compound 0.08 µM); 0.468 with XMD14-99 + Palbociclib (first compound 0.8 µM); 0.478 with XMD14-99 + Palbociclib (first compound 2.53 µM); 0.476 with XMD14-99 + Palbociclib (first compound 8 µM); 0.971 with XMD14-99 + Trametinib (first compound 0.08 µM); 1.15 in the assay with XMD14-99 + Trametinib (first compound 0.8 µM). Further, the results for the relative viability in the assay with XMD14-99 + Trametinib (first compound 2.53 µM) and with XMD14-99 + Trametinib (first compound 8 µM) were 1 and 0.879, respectively.
Take CAL-12T: the relative viability with XMD14-99 + Dasatinib (first compound 0.08 µM) stood at 0.34; with XMD14-99 + Dasatinib (first compound 0.8 µM), 0.449; with XMD14-99 + Dasatinib (first compound 2.53 µM), 0.356; in the assay with XMD14-99 + Dasatinib (first compound 8 µM), 0.248; with XMD14-99 + Navitoclax (first compound 0.08 µM), 1.28; with XMD14-99 + Navitoclax (first compound 0.8 µM), 1.14. For the same cell line, the relative viability with XMD14-99 + Navitoclax (first compound 2.53 µM) is 1.21; with XMD14-99 + Navitoclax (first compound 8 µM), 1.16; with XMD14-99 + Linsitinib (first compound 0.08 µM), 0.796; with XMD14-99 + Linsitinib (first compound 0.8 µM) it was 0.826; with XMD14-99 + Linsitinib (first compound 2.53 µM), 0.709; in the assay with XMD14-99 + Linsitinib (first compound 8 µM) it was 0.641. Also, the relative viability with XMD14-99 + Palbociclib (first compound 0.08 µM) came out at 0.532; with XMD14-99 + Palbociclib (first compound 0.8 µM), 0.43; in the assay with XMD14-99 + Palbociclib (first compound 2.53 µM), 0.485; with XMD14-99 + Palbociclib (first compound 8 µM), 0.413; with XMD14-99 + Trametinib (first compound 0.08 µM), 0.358; in the assay with XMD14-99 + Trametinib (first compound 0.8 µM) it was 0.305. Also, the relative viability came out at 0.268 in the assay with XMD14-99 + Trametinib (first compound 2.53 µM) and 0.241 with XMD14-99 + Trametinib (first compound 8 µM).
COR-L23: the relative viability stood at 0.556 in the assay with XMD14-99 + Dasatinib (first compound 0.08 µM); 0.452 with XMD14-99 + Dasatinib (first compound 0.8 µM); 0.337 with XMD14-99 + Dasatinib (first compound 2.53 µM); 0.183 with XMD14-99 + Dasatinib (first compound 8 µM); 0.951 with XMD14-99 + Navitoclax (first compound 0.08 µM); 0.894 in the assay with XMD14-99 + Navitoclax (first compound 0.8 µM). The relative viability with XMD14-99 + Navitoclax (first compound 2.53 µM) was 0.746; in the assay with XMD14-99 + Navitoclax (first compound 8 µM) it was 0.538; with XMD14-99 + Linsitinib (first compound 0.08 µM), 0.865; with XMD14-99 + Linsitinib (first compound 0.8 µM) it was 0.806; with XMD14-99 + Linsitinib (first compound 2.53 µM), 0.891; with XMD14-99 + Linsitinib (first compound 8 µM), 0.478. In addition, the relative viability with XMD14-99 + Palbociclib (first compound 0.08 µM) amounted to 0.266; with XMD14-99 + Palbociclib (first compound 0.8 µM) it was 0.295; with XMD14-99 + Palbociclib (first compound 2.53 µM), 0.299; with XMD14-99 + Palbociclib (first compound 8 µM) it was 0.18; in the assay with XMD14-99 + Trametinib (first compound 0.08 µM), 0.518; with XMD14-99 + Trametinib (first compound 0.8 µM) it was 0.56. The relative viability in the assay with XMD14-99 + Trametinib (first compound 2.53 µM) was 0.546; in the assay with XMD14-99 + Trametinib (first compound 8 µM) it was 0.363.
